These results are taken from BindingDB's records for patent US9624213 (Plexxikon, 2017).

The experiment addresses Serine/threonine-protein kinase B-raf [V600E] (Homo sapiens, UniProt P15056, V600E). The experiment is described as follows: Biochemical activity. As for the experimental part: Assays for biochemical and cell based activity are known in the art, for example, as described in PCT publication WO 2007/002433, the disclosure of which is hereby incorporated by reference as it relates to such assays. For example, the biochemical activity IC50 values are determined with respect to inhibition of B-Raf V600E kinase activity or p-Erk kinase activity, where inhibition of phosphorylation of a peptide substrate is measured as a function of compound concentration. Compounds to be tested are diluted in dimethyl sulfoxide to a concentration of 0.1 mM. These are serially diluted 15 uL into 30 uL of dimethyl sulfoxide seven times in 96 well plates for a total of 8 dilution points, and for each dilution point 1 uL is added to a well of an assay plate. Plates are prepared such that each well in a 384 well plate contains 1 uL of compound in 10 uL volume with 0.1 ng Raf enzyme (i.e. any of B-Raf, c-Raf-1 or B-Raf V600E, Upstate Biotechnology or prepared by methods known to one of skill in the art), 50 mM HEPES, pH 7.0, 50 mM NaCl, 2 mM MgCl2, 1 mM MnCl2, 0.01% Tween-20, 1 mM DTT, and 100 nM biotin-MEK1 as substrate. The reaction is started with addition of 10 uL of 200 uM ATP (i.e. final 100 uM ATP). After incubation of the kinase reaction for 45 minutes at room temperature, 5 uL/well of Stop Solution is added (25 mM Hepes pH 7.5, 100 mM EDTA, 0.01% BSA with donor beads (Streptavidin coated beads, Perkin Elmer), acceptor beads (Protein A coated, Perkin Elmer), and anti phosphor MEK1/2 antibody (CellSignal), each at final concentration 10 ug/mL).

A value given as a limit tells only on which side of the number the result lay.

Serine/threonine-protein kinase B-raf [V600E], sequence (P15056 2-766 V600E limits assumed): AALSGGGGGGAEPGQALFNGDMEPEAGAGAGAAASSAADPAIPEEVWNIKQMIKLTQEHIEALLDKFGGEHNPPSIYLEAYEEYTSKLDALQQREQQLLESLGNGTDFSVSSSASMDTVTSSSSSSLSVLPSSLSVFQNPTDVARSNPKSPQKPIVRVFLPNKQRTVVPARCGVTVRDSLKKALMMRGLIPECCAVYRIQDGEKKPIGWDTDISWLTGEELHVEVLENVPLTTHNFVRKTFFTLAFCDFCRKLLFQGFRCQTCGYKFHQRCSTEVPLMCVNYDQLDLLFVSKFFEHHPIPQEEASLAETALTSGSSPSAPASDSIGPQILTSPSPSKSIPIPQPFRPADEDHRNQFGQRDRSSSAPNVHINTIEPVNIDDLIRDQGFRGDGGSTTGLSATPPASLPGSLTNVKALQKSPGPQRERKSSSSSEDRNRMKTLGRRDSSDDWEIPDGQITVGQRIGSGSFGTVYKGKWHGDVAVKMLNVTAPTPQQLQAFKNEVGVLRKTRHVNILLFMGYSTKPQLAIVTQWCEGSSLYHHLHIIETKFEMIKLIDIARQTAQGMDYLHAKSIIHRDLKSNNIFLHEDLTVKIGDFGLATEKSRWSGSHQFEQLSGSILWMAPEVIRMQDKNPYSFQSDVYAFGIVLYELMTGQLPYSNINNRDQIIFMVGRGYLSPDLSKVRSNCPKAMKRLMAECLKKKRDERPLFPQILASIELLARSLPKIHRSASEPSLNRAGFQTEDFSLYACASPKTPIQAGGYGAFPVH

In the case of `CN(C)S(=O)(=O)Nc1cccc(C(=O)c2c[nH]c3ncc(-c4ccc(C#N)cc4)cc23)c1F`, the IC50 (usually the concentration that gives 50% inhibition) is less than 100 nM.
In turn, `CNS(=O)(=O)Nc1cccc(C(=O)c2c[nH]c3ncc(-c4cnc(OC)nc4)cc23)c1F` displayed a 50% inhibitory concentration (IC50) of more than 100 nM.
`CN(C)c1ncc(-c2cnc3[nH]cc(C(=O)c4c(F)ccc(NS(=O)(=O)N5CCCC5)c4F)c3c2)cn1` showed an IC50 of less than 100 nM.
In the case of `CCN(C)S(=O)(=O)Nc1cccc(C(=O)c2c[nH]c3ncc(-c4cnc(OC)nc4)cc23)c1F`, the half-maximal inhibitory concentration (IC50) was less than 100 nM.
On to `CN(C)S(=O)(=O)Nc1cccc(C(=O)c2c[nH]c3ncc(-c4ccc(F)cc4)cc23)c1F`, for which the IC50 is less than 100 nM.
Then `CCN(C)S(=O)(=O)Nc1cccc(C(=O)c2c[nH]c3ncc(C#N)cc23)c1F` [US9624213, Compound P-0039], with less than 100 nM.
In the case of `CCN(C)S(=O)(=O)Nc1cccc(C(=O)c2c[nH]c3ncc(-c4ccc(C#N)cc4)cc23)c1F`, the IC50 was less than 100 nM.
Regarding `COc1ncc(-c2cnc3[nH]cc(C(=O)c4cccc(NS(=O)(=O)N(C)C5CC5)c4F)c3c2)cn1`, the IC50 was less than 100 nM.
To `CCC(C)S(=O)(=O)Nc1cccc(C(=O)c2c[nH]c3ncc(-c4cnc(C5CC5)nc4)cc23)c1F` (centres undefined) [US9624213, Compound P-0228] belongs less than 100 nM; to `CCN(C)S(=O)(=O)Nc1ccc(F)c(C(=O)c2c[nH]c3ncc(-c4cnc(OC)nc4)cc23)c1F`, less than 100 nM.
In turn, `CCN(C)S(=O)(=O)Nc1cccc(C(=O)c2c[nH]c3ncc(-c4ccc(C)nc4)cc23)c1F` registered an IC50 of less than 100 nM.
The compound `O=C(c1c(F)ccc(NS(=O)(=O)N2CCCC2)c1F)c1c[nH]c2ncc(I)cc12` registered an IC50 of less than 100 nM.
To `CCN(C)S(=O)(=O)Nc1cccc(C(=O)c2c[nH]c3ncc(-c4ccc(F)cc4)cc23)c1F` belongs less than 100 nM.
`CCN(C)S(=O)(=O)Nc1cccc(C(=O)c2c[nH]c3ncc(-c4cccnc4)cc23)c1F` showed a concentration for half-maximal inhibition (IC50) of less than 100 nM.
`CCN(C)S(=O)(=O)Nc1cccc(C(=O)c2c[nH]c3ncc(-c4ccc(Cl)cc4)cc23)c1F` came in with an IC50 of less than 100 nM.
`Cc1ccc(-c2cnc3[nH]cc(C(=O)c4cccc(NS(=O)(=O)N(C)C)c4F)c3c2)cn1` [US9624213, Compound P-0029]: the half-inhibitory concentration (IC50) was less than 100 nM.
For `COc1ncc(-c2cnc3[nH]cc(C(=O)c4cccc(NS(=O)(=O)N5CCCC5)c4F)c3c2)c(OC)n1` [US9624213, Compound P-0044], the 50% inhibitory concentration (IC50) is less than 100 nM.
In the case of `CN(C)c1ccc(-c2cnc3[nH]cc(C(=O)c4cccc(NS(=O)(=O)N(C)C)c4F)c3c2)cn1`, the IC50 was less than 100 nM.
For `CC(C)CN(C)S(=O)(=O)Nc1cccc(C(=O)c2c[nH]c3ncc(I)cc23)c1F` [US9624213, Compound P-0070], the IC50 is more than 100 nM.
